Measurements taken from ChEMBL document CHEMBL6083188, “Recent contributions of pyridazine as a privileged scaffold of anticancer agents in medicinal chemistry: An updated review” (Bioorg Med Chem, 2024).
In brackets after ≈: the same amount, converted by molar mass.

Experiments:
[1] = Antiproliferative activity against mouse Ba/F3 EML4-ALK cells assessed as inhibition of cell growth; assay type: functional, cell-based
[2] = Antiproliferative activity against mouse Ba/F3 EML4-ALK-G1202R-L1196M cells assessed as inhibition of cell growth; assay type: functional, cell-based
HCT-116 [3] = assay: Cytotoxicity against human HCT-116 cells assessed as reduction in cell viability incubated for 72 hrs by MTT assay; assay type: functional, cell-based; details: HCT-116, 72 h
MDA-MB-231 = assay: cells; details: Homo sapiens
Description: Antiproliferative activity against human MDA-MB-231 cells assessed as reduction in cell viability

T47D = assay: cells; details: Homo sapiens
Description: Antiproliferative activity against human T47D cells assessed as reduction in cell viability

Aurora kinase B = Aurora kinase B (Homo sapiens, UniProt Q96GD4); assay: Inhibition of Aurora B (unknown origin)
Aurora kinase B, sequence (Q96GD4 whole entry): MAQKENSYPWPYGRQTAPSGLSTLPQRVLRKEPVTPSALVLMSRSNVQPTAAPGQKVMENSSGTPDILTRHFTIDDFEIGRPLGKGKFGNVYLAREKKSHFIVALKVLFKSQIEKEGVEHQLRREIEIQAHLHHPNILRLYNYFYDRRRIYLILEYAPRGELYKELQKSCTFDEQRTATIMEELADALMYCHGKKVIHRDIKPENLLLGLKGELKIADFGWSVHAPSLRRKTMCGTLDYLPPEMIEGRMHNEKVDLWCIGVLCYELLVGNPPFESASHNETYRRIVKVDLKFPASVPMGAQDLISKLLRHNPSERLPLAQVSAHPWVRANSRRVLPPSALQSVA

PC-3 [4] = assay: cells; details: Homo sapiens, PC-3, 72 h
Description: Cytotoxicity against human PC-3 cells assessed as inhibition of cell growth incubated for 72 hrs by MTT assay

[5] = target: Epidermal growth factor receptor (Homo sapiens, UniProt P00533); assay: Inhibition of EGFR (unknown origin) extracted from insect cells by ELISA method; assay type: cell-free, Insect cell
SNB-75 = assay: Antiproliferative activity against human SNB-75 cells assessed as reduction in cell growth incubated for 48 hrs by SRB assay; assay type: functional, cell-based; details: SNB-75, 48 h
[6] = target: Phosphatidylinositol 4,5-bisphosphate 3-kinase catalytic subunit alpha isoform (Homo sapiens, UniProt P42336); assay: Inhibition of PI3Kalpha (unknown origin)
Phosphatidylinositol 4,5-bisphosphate 3-kinase catalytic subunit alpha isoform, sequence (P42336 whole entry, canonical isoform): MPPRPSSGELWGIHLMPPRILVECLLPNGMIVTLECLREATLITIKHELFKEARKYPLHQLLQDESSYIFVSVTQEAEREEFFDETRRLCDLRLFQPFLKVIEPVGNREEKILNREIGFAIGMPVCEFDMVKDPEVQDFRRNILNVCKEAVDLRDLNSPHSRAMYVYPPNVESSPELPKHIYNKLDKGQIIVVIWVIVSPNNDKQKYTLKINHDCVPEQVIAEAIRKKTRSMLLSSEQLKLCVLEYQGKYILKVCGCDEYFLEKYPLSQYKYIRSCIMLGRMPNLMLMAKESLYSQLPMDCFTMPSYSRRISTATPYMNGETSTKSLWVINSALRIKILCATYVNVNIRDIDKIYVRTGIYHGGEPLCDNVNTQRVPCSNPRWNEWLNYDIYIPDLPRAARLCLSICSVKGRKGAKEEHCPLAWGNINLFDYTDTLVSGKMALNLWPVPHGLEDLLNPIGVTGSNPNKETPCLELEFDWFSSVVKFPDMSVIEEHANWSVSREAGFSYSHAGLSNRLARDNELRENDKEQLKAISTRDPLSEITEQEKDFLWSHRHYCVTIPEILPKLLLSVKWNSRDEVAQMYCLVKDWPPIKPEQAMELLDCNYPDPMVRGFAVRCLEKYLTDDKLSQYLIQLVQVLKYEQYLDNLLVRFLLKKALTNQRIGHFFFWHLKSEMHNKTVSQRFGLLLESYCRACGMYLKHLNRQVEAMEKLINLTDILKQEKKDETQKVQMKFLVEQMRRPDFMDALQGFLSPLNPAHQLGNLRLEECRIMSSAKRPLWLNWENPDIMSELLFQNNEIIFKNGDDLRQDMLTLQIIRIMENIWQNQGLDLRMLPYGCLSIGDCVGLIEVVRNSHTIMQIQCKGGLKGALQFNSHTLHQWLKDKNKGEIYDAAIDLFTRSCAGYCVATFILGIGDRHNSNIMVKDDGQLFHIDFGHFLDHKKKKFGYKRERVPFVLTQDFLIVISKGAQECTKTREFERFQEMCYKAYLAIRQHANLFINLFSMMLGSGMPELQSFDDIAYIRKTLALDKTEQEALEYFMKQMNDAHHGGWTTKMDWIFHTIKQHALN

[7] = target: Phosphatidylinositol 4,5-bisphosphate 3-kinase catalytic subunit beta isoform (Homo sapiens, UniProt P42338); assay: Inhibition of PI3Kbeta (unknown origin)
Phosphatidylinositol 4,5-bisphosphate 3-kinase catalytic subunit beta isoform, sequence (P42338 whole entry, canonical isoform): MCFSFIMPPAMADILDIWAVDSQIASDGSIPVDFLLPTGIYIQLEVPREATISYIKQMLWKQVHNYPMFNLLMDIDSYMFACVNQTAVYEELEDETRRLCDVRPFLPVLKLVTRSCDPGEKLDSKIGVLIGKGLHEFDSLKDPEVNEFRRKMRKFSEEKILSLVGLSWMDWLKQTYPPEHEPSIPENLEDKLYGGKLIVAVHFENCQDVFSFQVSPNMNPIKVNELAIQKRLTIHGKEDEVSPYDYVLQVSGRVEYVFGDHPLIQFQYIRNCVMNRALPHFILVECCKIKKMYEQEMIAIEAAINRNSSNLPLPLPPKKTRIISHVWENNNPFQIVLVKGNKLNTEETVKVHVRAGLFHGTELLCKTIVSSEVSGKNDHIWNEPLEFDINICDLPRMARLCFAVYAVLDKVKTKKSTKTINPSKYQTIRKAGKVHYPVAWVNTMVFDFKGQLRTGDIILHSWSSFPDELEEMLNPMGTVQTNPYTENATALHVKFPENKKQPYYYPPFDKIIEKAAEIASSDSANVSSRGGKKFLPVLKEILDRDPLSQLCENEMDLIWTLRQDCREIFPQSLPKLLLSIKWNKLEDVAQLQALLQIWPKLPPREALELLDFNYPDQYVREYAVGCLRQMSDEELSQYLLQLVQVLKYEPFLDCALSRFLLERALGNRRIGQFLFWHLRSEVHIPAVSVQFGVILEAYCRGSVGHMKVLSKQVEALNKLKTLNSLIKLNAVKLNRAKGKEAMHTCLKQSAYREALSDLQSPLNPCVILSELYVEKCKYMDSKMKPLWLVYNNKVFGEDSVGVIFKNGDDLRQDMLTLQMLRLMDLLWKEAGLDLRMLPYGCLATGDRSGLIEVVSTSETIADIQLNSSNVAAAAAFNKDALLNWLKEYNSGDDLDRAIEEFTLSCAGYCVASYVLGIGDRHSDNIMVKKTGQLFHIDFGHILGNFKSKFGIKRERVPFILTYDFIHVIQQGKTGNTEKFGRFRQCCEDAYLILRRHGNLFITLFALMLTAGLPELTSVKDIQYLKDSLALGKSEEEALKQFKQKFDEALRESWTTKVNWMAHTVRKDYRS

[8] = target: Phosphatidylinositol 4,5-bisphosphate 3-kinase catalytic subunit gamma isoform (Homo sapiens, UniProt P48736); assay: Inhibition of PI3Kgamma (unknown origin)
Phosphatidylinositol 4,5-bisphosphate 3-kinase catalytic subunit gamma isoform, sequence (P48736 whole entry, canonical isoform): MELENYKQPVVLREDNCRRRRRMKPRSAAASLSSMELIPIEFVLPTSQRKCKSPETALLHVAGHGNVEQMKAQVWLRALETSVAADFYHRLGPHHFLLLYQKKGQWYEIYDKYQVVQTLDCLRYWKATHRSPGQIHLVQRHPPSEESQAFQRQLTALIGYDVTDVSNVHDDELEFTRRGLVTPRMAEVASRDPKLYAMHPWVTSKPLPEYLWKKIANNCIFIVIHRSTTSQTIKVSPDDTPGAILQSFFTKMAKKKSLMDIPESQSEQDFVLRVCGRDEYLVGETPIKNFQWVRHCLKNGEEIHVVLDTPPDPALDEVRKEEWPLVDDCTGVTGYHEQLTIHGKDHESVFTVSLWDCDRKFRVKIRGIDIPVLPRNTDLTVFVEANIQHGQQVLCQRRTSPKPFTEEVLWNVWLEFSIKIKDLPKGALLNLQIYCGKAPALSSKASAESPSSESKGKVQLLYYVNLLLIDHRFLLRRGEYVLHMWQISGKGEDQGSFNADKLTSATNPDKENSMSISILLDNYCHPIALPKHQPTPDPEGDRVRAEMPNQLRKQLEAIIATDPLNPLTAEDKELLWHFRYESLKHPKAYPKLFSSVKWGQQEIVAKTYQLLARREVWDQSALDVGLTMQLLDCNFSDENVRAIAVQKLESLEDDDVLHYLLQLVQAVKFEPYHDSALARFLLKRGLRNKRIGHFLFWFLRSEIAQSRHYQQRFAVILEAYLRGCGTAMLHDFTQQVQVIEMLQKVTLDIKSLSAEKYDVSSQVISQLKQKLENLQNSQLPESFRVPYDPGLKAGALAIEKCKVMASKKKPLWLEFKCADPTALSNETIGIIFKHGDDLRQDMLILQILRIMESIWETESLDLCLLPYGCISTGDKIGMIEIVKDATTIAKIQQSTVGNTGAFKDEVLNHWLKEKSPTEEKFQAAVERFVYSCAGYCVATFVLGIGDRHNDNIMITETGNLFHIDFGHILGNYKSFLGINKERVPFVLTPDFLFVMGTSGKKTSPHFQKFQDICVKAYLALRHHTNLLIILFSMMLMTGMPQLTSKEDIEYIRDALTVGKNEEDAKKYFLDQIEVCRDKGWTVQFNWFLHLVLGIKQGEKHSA

[9] = target: T1, Phosphatidylinositol 4,5-bisphosphate 3-kinase catalytic subunit delta isoform (Homo sapiens, UniProt O00329); assay: Inhibition of PI3Kdelta (unknown origin)
T1 sequence (O00329 whole entry): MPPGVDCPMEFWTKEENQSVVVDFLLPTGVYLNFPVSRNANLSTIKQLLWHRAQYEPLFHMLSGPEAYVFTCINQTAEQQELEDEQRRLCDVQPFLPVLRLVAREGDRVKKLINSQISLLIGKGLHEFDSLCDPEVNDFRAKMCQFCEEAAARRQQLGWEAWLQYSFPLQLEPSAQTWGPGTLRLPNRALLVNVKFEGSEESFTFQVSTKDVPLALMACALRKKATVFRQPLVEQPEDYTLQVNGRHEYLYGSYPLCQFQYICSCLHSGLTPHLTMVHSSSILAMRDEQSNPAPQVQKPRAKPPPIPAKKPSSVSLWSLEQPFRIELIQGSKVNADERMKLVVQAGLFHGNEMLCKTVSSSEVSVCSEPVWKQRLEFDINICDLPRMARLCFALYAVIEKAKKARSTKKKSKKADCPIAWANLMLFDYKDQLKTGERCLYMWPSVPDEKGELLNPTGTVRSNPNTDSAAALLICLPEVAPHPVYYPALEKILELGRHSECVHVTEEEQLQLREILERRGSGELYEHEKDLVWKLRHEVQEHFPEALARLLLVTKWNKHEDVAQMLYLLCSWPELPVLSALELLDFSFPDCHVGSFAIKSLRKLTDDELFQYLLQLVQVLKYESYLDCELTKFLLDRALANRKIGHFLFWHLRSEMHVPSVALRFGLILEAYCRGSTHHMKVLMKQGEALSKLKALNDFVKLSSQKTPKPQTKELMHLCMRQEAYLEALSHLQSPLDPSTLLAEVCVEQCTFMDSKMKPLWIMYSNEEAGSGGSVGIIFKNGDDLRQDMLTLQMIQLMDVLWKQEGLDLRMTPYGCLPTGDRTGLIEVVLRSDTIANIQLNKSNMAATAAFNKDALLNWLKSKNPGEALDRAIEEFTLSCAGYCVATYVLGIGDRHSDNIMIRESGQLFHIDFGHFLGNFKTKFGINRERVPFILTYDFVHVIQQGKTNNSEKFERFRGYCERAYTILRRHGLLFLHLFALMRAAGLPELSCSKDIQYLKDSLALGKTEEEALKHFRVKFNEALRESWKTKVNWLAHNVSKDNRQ

[10] = target: Hepatocyte growth factor receptor (Homo sapiens, UniProt P08581); assay: Inhibition of c-Met (unknown origin)
Hepatocyte growth factor receptor, sequence (P08581 whole entry): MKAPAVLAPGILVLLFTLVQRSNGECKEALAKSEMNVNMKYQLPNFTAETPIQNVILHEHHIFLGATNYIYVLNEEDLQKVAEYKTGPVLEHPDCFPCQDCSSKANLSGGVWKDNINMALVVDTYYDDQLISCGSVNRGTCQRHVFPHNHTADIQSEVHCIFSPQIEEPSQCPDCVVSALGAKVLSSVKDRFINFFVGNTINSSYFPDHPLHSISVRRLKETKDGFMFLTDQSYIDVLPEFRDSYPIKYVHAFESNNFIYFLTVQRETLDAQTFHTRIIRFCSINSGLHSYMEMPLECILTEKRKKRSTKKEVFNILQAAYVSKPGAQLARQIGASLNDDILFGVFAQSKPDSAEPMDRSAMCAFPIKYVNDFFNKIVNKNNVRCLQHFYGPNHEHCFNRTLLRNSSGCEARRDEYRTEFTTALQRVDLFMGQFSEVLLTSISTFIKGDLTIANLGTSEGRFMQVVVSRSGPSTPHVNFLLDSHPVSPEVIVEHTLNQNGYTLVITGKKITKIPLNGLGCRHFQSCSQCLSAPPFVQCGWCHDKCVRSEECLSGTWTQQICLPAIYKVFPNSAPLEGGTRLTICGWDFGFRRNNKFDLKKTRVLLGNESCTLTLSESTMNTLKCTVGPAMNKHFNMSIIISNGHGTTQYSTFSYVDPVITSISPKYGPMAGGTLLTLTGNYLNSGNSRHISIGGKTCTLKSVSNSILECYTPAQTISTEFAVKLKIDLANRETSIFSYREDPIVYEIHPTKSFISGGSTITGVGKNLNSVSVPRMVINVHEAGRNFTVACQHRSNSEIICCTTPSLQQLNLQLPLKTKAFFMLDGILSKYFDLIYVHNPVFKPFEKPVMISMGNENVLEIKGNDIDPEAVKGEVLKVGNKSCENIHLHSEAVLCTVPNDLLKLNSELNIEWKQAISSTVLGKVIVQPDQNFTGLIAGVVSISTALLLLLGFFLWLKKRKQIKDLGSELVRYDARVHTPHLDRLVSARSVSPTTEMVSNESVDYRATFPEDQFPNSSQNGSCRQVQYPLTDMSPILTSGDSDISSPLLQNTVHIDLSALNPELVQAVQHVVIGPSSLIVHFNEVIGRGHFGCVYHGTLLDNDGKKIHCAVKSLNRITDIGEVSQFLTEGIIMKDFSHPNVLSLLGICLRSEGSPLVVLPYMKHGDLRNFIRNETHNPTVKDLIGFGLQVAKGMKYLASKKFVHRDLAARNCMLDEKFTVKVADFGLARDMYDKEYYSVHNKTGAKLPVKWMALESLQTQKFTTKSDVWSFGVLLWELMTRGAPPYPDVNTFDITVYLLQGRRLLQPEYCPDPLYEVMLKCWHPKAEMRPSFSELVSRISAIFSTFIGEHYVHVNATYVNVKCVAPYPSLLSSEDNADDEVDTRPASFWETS

A549 = assay: Cytotoxicity against human A549 cells assessed as reduction in cell growth incubated for 5 days by MTT assay; assay type: functional, cell-based; details: A549, 120 h
MCF7 [11] = assay: Cytotoxicity against human MCF7 cells assessed as reduction in cell growth incubated for 5 days by MTT assay; assay type: functional, cell-based; details: MCF7, 120 h
HeLa = assay: Cytotoxicity against human HeLa cells assessed as reduction in cell growth incubated for 5 days by MTT assay; assay type: functional, cell-based; details: 120 h
MCF7 [12] = assay: Cytotoxicity against human MCF7 cells assessed as reduction in cell viability measured for 48 hrs by MTT assay; assay type: functional, cell-based; details: MCF7, 48 h
HCT-116 [13] = assay: Cytotoxicity against human HCT-116 cells assessed as reduction in cell viability measured for 48 hrs by MTT assay; assay type: functional, cell-based; details: HCT-116, 48 h
HepG2 = assay: Cytotoxicity against human HepG2 cells assessed as reduction in cell viability measured for 48 hrs by MTT assay; assay type: functional, cell-based; details: HepG2, 48 h
PC-3 [14] = assay: Cytotoxicity against human PC-3 cells assessed as reduction in cell viability measured for 48 hrs by MTT assay; assay type: functional, cell-based; details: PC-3, 48 h
MGC-803 = assay: Antitumor activity against human MGC-803 cells xenografted in nude mouse assessed as tumor inhibition at 20 mg/kg, ip administered once every two days for 21 days relative to control; assay type: functional; design: scale not given: the % may be the effect or the level left; details: time 21 day

C[C@H]1CNC(=O)c2cnn3ccc(nc23)N[C@H](C)c2cc(F)ccc2O1 [REPOTRECTINIB]
IC50 [1]: 164 nM
IC50 [2]: 208 nM

COC(=O)C(CC(C)(C)C)NC(=O)CNC(=O)COc1nn(-c2ccccc2)c(=O)c2ccccc12 (stereo not drawn)
IC50 (HCT-116 [3]): 1360 nM

O=C(NCC1CCOCC1)c1cc(C(F)(F)F)c(N2CCOCC2)nn1
IC50 (MDA-MB-231): 900 nM
IC50 (T47D): 430 nM

c1cc2[nH]ncc2cc1-c1cnc2ccc(OC[C@H]3CNCCO3)nn12
IC50 (Aurora kinase B): 6 nM

CNC(=O)c1cc(Oc2ccc(NC(=O)Nc3ccc(Cl)c(C(F)(F)F)c3)cc2)ccn1 [SORAFENIB]
IC50 (PC-3 [4]): 11500 nM

COc1cccc(C2=NN(c3ccc(-c4ccccc4)nn3)C(c3ccc(F)c(OC)c3)C2)c1 (stereo not drawn)
IC50 [5]: 650 nM

O=C1CCC(c2ccc(NC(=S)Nc3ccccc3)cc2)=NN1c1ccccc1
IC50 (PC-3 [4]): 7830 nM

CCOC(=O)c1nn(-c2ccccc2)c(=O)c2c(N)c(C#N)c(-c3cccs3)cc12
IC50 (SNB-75): 3.7 µg/mL (≈ 8.88 µM)
IC50 [6]: 4390 nM
IC50 [7]: 13600 nM
IC50 [8]: 12500 nM
IC50 [9]: 3110 nM

Cc1cc(Oc2ccc(NC(=O)c3sc(-c4ccccn4)nc3C)cc2)c2nncn2n1
IC50 [10]: 90 nM
IC50 (A549): 1060 nM
IC50 (MCF7 [11]): 1200 nM
IC50 (HeLa): 2730 nM

Oc1ccc(/C=N/Nc2nn3c(C(F)(F)F)nnc3c3ccccc23)cc1
IC50 (MCF7 [12]): 8040 nM
IC50 (HCT-116 [13]): 5700 nM
IC50 (HepG2): 11200 nM
IC50 (PC-3 [14]): 4250 nM

CCN(CC)CCNc1cc(-c2ccc(Br)cc2)nn2c(=O)c3ccccc3nc12
Activity (MGC-803): 55.9%
